Columns and labels:
[1] = target: T1, Thyroid hormone receptor alpha (Homo sapiens, UniProt P10827); assay: Binding affinity to human thyroid hormone receptor alpha 1
T1 sequence (P10827 whole entry): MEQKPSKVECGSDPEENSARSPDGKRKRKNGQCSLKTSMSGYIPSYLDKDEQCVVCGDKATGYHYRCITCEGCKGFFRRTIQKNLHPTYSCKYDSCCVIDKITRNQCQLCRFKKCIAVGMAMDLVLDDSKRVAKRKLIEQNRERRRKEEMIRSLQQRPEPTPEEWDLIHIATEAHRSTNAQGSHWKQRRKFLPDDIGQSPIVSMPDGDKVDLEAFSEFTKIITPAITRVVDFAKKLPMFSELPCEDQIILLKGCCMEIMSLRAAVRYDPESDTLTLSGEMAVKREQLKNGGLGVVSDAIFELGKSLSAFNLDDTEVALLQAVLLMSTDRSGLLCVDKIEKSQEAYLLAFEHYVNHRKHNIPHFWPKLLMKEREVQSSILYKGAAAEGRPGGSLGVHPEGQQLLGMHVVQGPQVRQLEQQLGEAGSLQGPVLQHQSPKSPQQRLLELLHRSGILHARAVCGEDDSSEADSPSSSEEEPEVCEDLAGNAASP

[2] = target: T2, Thyroid hormone receptor beta (Homo sapiens, UniProt P10828); assay: Binding affinity to human thyroid hormone receptor beta 1
T2 sequence (P10828 whole entry): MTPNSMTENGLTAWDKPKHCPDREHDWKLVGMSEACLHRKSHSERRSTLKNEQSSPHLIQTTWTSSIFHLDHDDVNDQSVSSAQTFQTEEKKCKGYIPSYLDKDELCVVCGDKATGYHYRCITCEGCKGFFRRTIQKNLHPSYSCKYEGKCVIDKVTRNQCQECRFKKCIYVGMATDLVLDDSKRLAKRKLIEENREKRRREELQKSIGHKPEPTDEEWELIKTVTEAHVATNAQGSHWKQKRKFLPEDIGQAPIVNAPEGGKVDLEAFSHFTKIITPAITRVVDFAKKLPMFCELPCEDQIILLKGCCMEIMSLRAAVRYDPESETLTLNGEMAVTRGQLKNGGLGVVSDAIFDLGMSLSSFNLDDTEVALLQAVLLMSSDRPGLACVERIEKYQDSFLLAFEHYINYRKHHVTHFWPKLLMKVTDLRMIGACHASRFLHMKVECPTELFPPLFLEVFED

[3] = target: Thyroid hormone receptor (Homo sapiens) (UniProt P10827+P10828); assay: Selectivity for human thyroid hormone receptor beta 1 over thyroid hormone receptor alpha 1; format: protein-complex assay

Compound	IC50 [1]	IC50 [2]	Ratio IC50 [3]
CCC(C)C(=O)Nc1ccc(Oc2c(Cl)cc(CC(=O)O)cc2Cl)cc1Br (stereo not drawn)	240 nM	4.3 nM	33
CCC(=O)Nc1ccc(Oc2c(Cl)cc(CC(=O)O)cc2Cl)cc1Br	3300 nM	140 nM	14
CCCC(CCC)C(=O)Nc1ccc(Oc2c(Cl)cc(CC(=O)O)cc2Cl)cc1Br	1200 nM	45 nM	16

The remaining molecules from weak to strong by IC50 [1], led by results:

IC50 [1]	IC50 [2]	Ratio IC50 [3]	Compound
1300 nM	47 nM	16	CCCC(C)C(=O)Nc1ccc(Oc2c(Cl)cc(CC(=O)O)cc2Cl)cc1Br (stereo not drawn)
630 nM	18 nM	21	CC(C)C(=O)Nc1ccc(Oc2c(Cl)cc(CC(=O)O)cc2Cl)cc1Br
610 nM	16 nM	22	CCC(CC)C(=O)Nc1ccc(Oc2c(Cl)cc(CC(=O)O)cc2Cl)cc1Br

Source: ChEMBL document CHEMBL1149453, “Thyroid receptor ligands. Part 4: 4'-amido bioisosteric ligands selective for the thyroid hormone receptor beta” (Bioorg Med Chem Lett, 2006)
